Results from PMC11742723, “The clinical-stage drug BTZ-043 accumulates in murine tuberculosis lesions and efficiently acts against Mycobacterium tuberculosis” (Nature Communications, 2025).
Where “and” joins values, the source holds several entries; their conditions need not be identical. Identical values can stand only once.

What was measured:
[1] = MALDI imaging and penetration analysis in centrally necrotizing granulomas; details: Right Granuloma
Mtb H37Rv [2] = experiment: BTZ-043 dose-fractionation study in Mtb-infected BALB/c mice (lung CFU); type: in vivo, Mycobacterium tuberculosis; details: for pulmonary CFU counts / mouse: 6 weeks of treatment, individual female mice
Mtb H37Rv [3] = experiment: Prolonged BTZ-043 treatment of Mtb-infected IL-13tg mice (pulmonary CFU); type: in vivo, Mycobacterium tuberculosis
Mtb [4] = experiment: Lesional efficacy: LCM of necrotic core and Mtb 16S rRNA molecular bacterial load assay (MBLA); type: in vivo, Mycobacterium tuberculosis; details: for CFU / mm3 (MBLA): BTZ-043 [250 mg/kg], individual mice, 250 mg/kg
Mtb H37Rv [5] = experiment: BTZ-043 treatment for 10 days of Mtb-infected IL-13tg mice (pulmonary CFU); type: in vivo, Mycobacterium tuberculosis
[6] = Impact of γ-irradiation on BTZ-043 in lung cryosections of treated mice (LC-MS/MS, MALDI imaging)
[7] = IL-13tg, mouse, in vivo
Mtb [8] = test system: Mtb; parameters: method as in PMID 39793592; details: phase IIa EBA, 250 mg - 1750 mg once daily for 14 days; cited from earlier work
Mtb [9] = test system: Mtb; parameters: method as in PMID 37791784, PMID 34370580; details: in vitro, ref PMID 37791784, PMID 34370580; cited from earlier work
[10] = IL-13tg mice, 250 mg/kg/day, 10 days

## C[C@H]1COC2(CCN(c3nc(=O)c4cc(C(F)(F)F)cc([N+](=O)[O-])c4s3)CC2)O1 [BTZ-043]
[1]; Distance -65 μm
  Mean intensity: 66.172
[1]; Distance -75 μm
  Mean intensity: 61.043
[1]; Distance -85 μm
  Mean intensity: 54.281
[1]; Distance -95 μm
  Mean intensity: 56.521
[1]; Distance -105 μm
  Mean intensity: 53.591
[1]; Distance -115 μm
  Mean intensity: 52.38
[1]; Distance -125 μm
  Mean intensity: 54.234
[1]; Distance -135 μm
  Mean intensity: 48.899
[1]; Distance -145 μm
  Mean intensity: 60.041
[1]; Distance -155 μm
  Mean intensity: 59.51
[1]; Distance -165 μm
  Mean intensity: 58.931
[1]; Distance -175 μm
  Mean intensity: 63.443
[1]; Distance -185 μm
  Mean intensity: 66.482
[1]; Distance -195 μm
  Mean intensity: 69.634
[1]; Distance -205 μm
  Mean intensity: 66.172
[1]; Distance -215 μm
  Mean intensity: 74.546
[1]; Distance -225 μm
  Mean intensity: 72.092
[1]; Distance -235 μm
  Mean intensity: 66.755
[1]; Distance -245 μm
  Mean intensity: 74.961
[1]; Distance -255 μm
  Mean intensity: 64.422
[1]; Distance -265 μm
  Mean intensity: 67.123
[1]; Distance -275 μm
  Mean intensity: 62.093
[1]; Distance -285 μm
  Mean intensity: 63.383
[1]; Distance -295 μm
  Mean intensity: 60.578
[1]; Distance -305 μm
  Mean intensity: 57.529
[1]; Distance -315 μm
  Mean intensity: 54.535
[1]; Distance -325 μm
  Mean intensity: 51.043
[1]; Distance -335 μm
  Mean intensity: 51.438
[1]; Distance -345 μm
  Mean intensity: 52.76
[1]; Distance -355 μm
  Mean intensity: 52.538
[1]; Distance -365 μm
  Mean intensity: 48.918
[1]; Distance -375 μm
  Mean intensity: 51.113
[1]; Distance -385 μm
  Mean intensity: 46.016
[1]; Distance -395 μm
  Mean intensity: 55.943
[1]; Distance -405 μm
  Mean intensity: 55.946
[1]; Distance -415 μm
  Mean intensity: 56.244
[1]; Distance -425 μm
  Mean intensity: 54.068
[1]; Distance -435 μm
  Mean intensity: 59.943
[1]; Distance -445 μm
  Mean intensity: 57.116
Mtb H37Rv [2]; 2.5 mg/kg BTZ-043 BID
  pulmonary CFU counts / mouse: 20001 CFU counts / mouse and 18001 CFU counts / mouse and 34001 CFU counts / mouse and 55001 CFU counts / mouse
Mtb H37Rv [2]; 2.5 mg/kg BTZ-043 QD
  pulmonary CFU counts / mouse: 50001 CFU counts / mouse and 110001 CFU counts / mouse and 82501 CFU counts / mouse
Mtb H37Rv [2]; 5 mg/kg BTZ-043 QD
  pulmonary CFU counts / mouse: 160001 CFU counts / mouse and 92501 CFU counts / mouse
Mtb H37Rv [2]; BALB/c lungs, 250 mg/kg QD microcrystalline BTZ-043, 6 weeks
  CFU reduction compared to the untreated control: 3.7 log10 CFU
Mtb H37Rv [2]; amorphous BTZ-043, 5 to 50 mg/kg/day, 6 weeks
  effect of fractionation of the dose into two administrations (BID vs QD, identical total dose): modest, but consistent, trend towards increased mycobactericidal activity
Mtb H37Rv [3]; BTZ-043 [250 mg/kg], 4-6 weeks of therapy, individual mice, female and male, 250 mg/kg
  pulmonary CFU / mouse: 823500 CFU / mouse and 616966 CFU / mouse and 3482791 CFU / mouse and 4043721 CFU / mouse and 7632000 CFU / mouse
Mtb H37Rv [3]; IL-13tg mice, 250 mg/kg 5 times a week, prolonged therapy (4 to 6 weeks)
  reduction of the pulmonary bacterial burden compared to the vehicle group: more than 2 log10 CFU
Mtb [4]; 2 weeks of therapy
  CFU / mm3 (MBLA): 322664 CFU / mm3 and 2329437 CFU / mm3
Mtb [4]; 4-6 weeks of therapy
  CFU / mm3 (MBLA): 228171 CFU / mm3 and 91947 CFU / mm3 and 205657 CFU / mm3
Mtb [4]; IL-13tg mice, 250 mg/kg 5 times a week, 2 weeks of treatment
  Mtb 16S rRNA expression in the necrotic center compared to the vehicle group: decreased
Mtb [4]; IL-13tg mice, 250 mg/kg 5 times a week, further course of therapy (4 to 6 weeks)
  bacterial load in the necrotic center: strongly reduced
Mtb [4]; IL-13tg mice, LCM-isolated necrotic areas
  reduction of bacterial burden in necrotic areas of granulomas (Mtb 16S rRNA): 2 log10
Mtb H37Rv [5]; BTZ-043 [250 mg/kg], 2 weeks of therapy, individual mice, female and male, 250 mg/kg
  pulmonary CFU / mouse: 22635294 CFU / mouse and 34160000 CFU / mouse and 22750000 CFU / mouse and 19564286 CFU / mouse and 20000000 CFU / mouse
Mtb H37Rv [5]; IL-13tg mice lungs, 250 mg/kg/day, 10 days
  reduction of the bacterial load versus start of treatment: 0.9 log10 CFU
Mtb H37Rv [5]; IL-13tg mice lungs, 250 mg/kg/day, 10 days, versus before treatment
  reduction of the bacterial burden: 86%
Mtb H37Rv [5]; [10]
  bacterial burden after therapy as share of the initial CFU counts: 13.8%
  mean pulmonary bacterial burden after treatment: 4.8 × 10^7 CFU
Mtb H37Rv [5]; IL-13tg mice, 250 mg/kg/day, 10 days, mean
  pulmonary bacterial burden after therapy: 7.69 log10 CFU
Mtb H37Rv [5]; IL-13tg mice, female, 10 days BTZ-043 250 mg/kg, 250 mg/kg
  pulmonary CFU counts / mouse: 22032000 and 27394286
[6]; BALB/c, mouse, 250 mg/kg/day, ng/mg lung cryosection, measurement 2, no gamma irradiation, 1h after BTZ administration, naïve BALB/c 250 mg/kg/day 5 days, single cryosection
  concentration at 1 h: 1400 ng/g
[6]; gamma irradiation, 1h after BTZ administration, naïve BALB/c 250 mg/kg/day 5 days, single cryosection
  ng/mg lung cryosection, Mean: 13.81 ng/mg lung cryosection
[6]; lung tissue cryosections, 5.85 kGy
  impact of γ-irradiation on the concentration and distribution of BTZ-043: does not impact
[7]
  penetration into the lesion by MALDI imaging: penetration of BTZ-043 into the lesion was observed
Mtb [8]
  bacterial killing with increasing dose in TB patients: no obvious further increase in bacterial killing above daily doses of 1000 mg
Mtb [9]
  caseum activity assay result: negative
BTZ-043 treated mice, most pronounced at the highest dose for 8 weeks
  finding at necropsy: enlarged stomachs
Dose escalation study, BALB/c
  health status of drug treated mice at high treatment doses: did not observe any indication that could point to adverse side effects
